{"source": "ChEMBL document CHEMBL1240349", "about": "“Influence of tigecycline on expression of virulence factors in biofilm-associated cells of methicillin-resistant Staphylococcus aureus” (2010)", "assay_type_in_all_cases": "functional", "key": {"Staphylococcus aureus [1]": {"system": "Staphylococcus aureus", "experiment": "Increase in fnbB gene expression in biofilm-associated cells of epidemic methicillin-resistant Staphylococcus aureus isolate 16 at 4 times MIC incubated for 1 hr by whole genome microarray relative to untreated control"}, "Staphylococcus aureus [2]": {"system": "Staphylococcus aureus", "experiment": "Increase in rho gene expression in biofilm-associated cells of epidemic methicillin-resistant Staphylococcus aureus isolate 16 at 4 times MIC incubated for 1 hr by whole genome microarray relative to untreated control"}, "Staphylococcus aureus [3]": {"system": "Staphylococcus aureus", "experiment": "Increase in infB gene expression in biofilm-associated cells of epidemic methicillin-resistant Staphylococcus aureus isolate 16 at 4 times MIC incubated for 1 hr by whole genome microarray relative to untreated control"}, "Staphylococcus aureus [4]": {"system": "Staphylococcus aureus", "experiment": "Increase in infC gene expression in biofilm-associated cells of epidemic methicillin-resistant Staphylococcus aureus isolate 16 at 4 times MIC incubated for 1 hr by whole genome microarray relative to untreated control"}, "Staphylococcus aureus [5]": {"system": "Staphylococcus aureus", "experiment": "Increase in tuf gene expression in biofilm-associated cells of epidemic methicillin-resistant Staphylococcus aureus isolate 16 at 4 times MIC incubated for 1 hr by whole genome microarray relative to untreated control"}, "Staphylococcus aureus [6]": {"system": "Staphylococcus aureus", "experiment": "Increase in rplC gene expression in biofilm-associated cells of epidemic methicillin-resistant Staphylococcus aureus isolate 16 at 4 times MIC incubated for 1 hr by whole genome microarray relative to untreated control"}, "Staphylococcus aureus [7]": {"system": "Staphylococcus aureus", "experiment": "Increase in rplD gene expression in biofilm-associated cells of epidemic methicillin-resistant Staphylococcus aureus isolate 16 at 4 times MIC incubated for 1 hr by whole genome microarray relative to untreated control"}, "Staphylococcus aureus [8]": {"system": "Staphylococcus aureus", "experiment": "Increase in rplN gene expression in biofilm-associated cells of epidemic methicillin-resistant Staphylococcus aureus isolate 16 at 4 times MIC incubated for 1 hr by whole genome microarray relative to untreated control"}, "Staphylococcus aureus [9]": {"system": "Staphylococcus aureus", "experiment": "Decrease in icaC gene expression in biofilm-associated cells of epidemic methicillin-resistant Staphylococcus aureus isolate 16 at 4 times MIC incubated for 1 hr by RT-PCR relative to untreated control"}, "Staphylococcus aureus [10]": {"system": "Staphylococcus aureus", "experiment": "Increase in isaA gene expression in biofilm-associated cells of epidemic methicillin-resistant Staphylococcus aureus isolate 16 at 4 times MIC incubated for 1 hr by RT-PCR relative to untreated control"}, "Staphylococcus aureus [11]": {"system": "Staphylococcus aureus", "experiment": "Decrease in tst gene expression in biofilm-associated cells of epidemic methicillin-resistant Staphylococcus aureus isolate 16 at 4 times MIC incubated for 1 hr by RT-PCR relative to untreated control"}, "Staphylococcus aureus [12]": {"system": "Staphylococcus aureus", "experiment": "Decrease in capC expression in biofilm-associated cells of epidemic methicillin-resistant Staphylococcus aureus isolate 16-1 at 4 times MIC incubated for 1 hr by RT-PCR relative to untreated control"}, "Staphylococcus aureus [13]": {"system": "Staphylococcus aureus", "experiment": "Increase in mnhD gene expression in biofilm-associated cells of epidemic methicillin-resistant Staphylococcus aureus isolate 16 at 4 times MIC incubated for 1 hr by whole genome microarray relative to untreated control"}, "Staphylococcus aureus [14]": {"system": "Staphylococcus aureus", "experiment": "Increase in tcaR gene expression in biofilm-associated cells of epidemic methicillin-resistant Staphylococcus aureus isolate 16 at 4 times MIC incubated for 1 hr by whole genome microarray relative to untreated control"}, "Staphylococcus aureus [15]": {"system": "Staphylococcus aureus", "experiment": "Decrease in dinR gene expression in biofilm-associated cells of epidemic methicillin-resistant Staphylococcus aureus isolate 16 at 4 times MIC incubated for 1 hr by whole genome microarray relative to untreated control"}, "Staphylococcus aureus [16]": {"system": "Staphylococcus aureus", "experiment": "Increase in saeR gene expression in biofilm-associated cells of epidemic methicillin-resistant Staphylococcus aureus isolate 16 at 4 times MIC incubated for 1 hr by whole genome microarray relative to untreated control"}, "Staphylococcus aureus [17]": {"system": "Staphylococcus aureus", "experiment": "Decrease in clpC gene expression in biofilm-associated cells of epidemic methicillin-resistant Staphylococcus aureus isolate 16 at 4 times MIC incubated for 1 hr by whole genome microarray relative to untreated control"}, "Staphylococcus aureus [18]": {"system": "Staphylococcus aureus", "experiment": "Increase in recU gene expression in biofilm-associated cells of epidemic methicillin-resistant Staphylococcus aureus isolate 16 at 4 times MIC incubated for 1 hr by whole genome microarray relative to untreated control"}, "Staphylococcus aureus [19]": {"system": "Staphylococcus aureus", "experiment": "Increase in rpoC gene expression in biofilm-associated cells of epidemic methicillin-resistant Staphylococcus aureus isolate 16 at 4 times MIC incubated for 1 hr by whole genome microarray relative to untreated control"}, "Staphylococcus aureus [20]": {"system": "Staphylococcus aureus", "experiment": "Increase in pbp2 gene expression in biofilm-associated cells of epidemic methicillin-resistant Staphylococcus aureus isolate 16 at 4 times MIC incubated for 1 hr by whole genome microarray relative to untreated control"}, "Staphylococcus aureus [21]": {"system": "Staphylococcus aureus", "experiment": "Increase in dltB gene expression in biofilm-associated cells of epidemic methicillin-resistant Staphylococcus aureus isolate 16 at 4 times MIC incubated for 1 hr by whole genome microarray relative to untreated control"}, "Staphylococcus aureus [22]": {"system": "Staphylococcus aureus", "experiment": "Increase in dltA gene expression in biofilm-associated cells of epidemic methicillin-resistant Staphylococcus aureus isolate 16 at 4 times MIC incubated for 1 hr by whole genome microarray relative to untreated control"}, "Staphylococcus aureus [23]": {"system": "Staphylococcus aureus", "experiment": "Increase in ssaA gene expression in biofilm-associated cells of epidemic methicillin-resistant Staphylococcus aureus isolate 16 at 4 times MIC incubated for 1 hr by whole genome microarray relative to untreated control"}, "Staphylococcus aureus [24]": {"system": "Staphylococcus aureus", "experiment": "Decrease in sdrD gene expression in biofilm-associated cells of epidemic methicillin-resistant Staphylococcus aureus isolate 16 at 4 times MIC incubated for 1 hr by whole genome microarray relative to untreated control"}, "Staphylococcus aureus [25]": {"system": "Staphylococcus aureus", "experiment": "Increase in cna expression in biofilm-associated cells of epidemic methicillin-resistant Staphylococcus aureus isolate 16-1 at 4 times MIC incubated for 1 hr by RT-PCR relative to untreated control"}, "Staphylococcus aureus [26]": {"system": "Staphylococcus aureus", "experiment": "Decrease in sasF expression in biofilm-associated cells of epidemic methicillin-resistant Staphylococcus aureus isolate 16-1 at 4 times MIC incubated for 1 hr by RT-PCR relative to untreated control"}, "Staphylococcus aureus [27]": {"system": "Staphylococcus aureus", "experiment": "Decrease in capG expression in biofilm-associated cells of epidemic methicillin-resistant Staphylococcus aureus isolate 16-2 at 4 times MIC incubated for 1 hr by RT-PCR relative to untreated control"}, "Staphylococcus aureus [28]": {"system": "Staphylococcus aureus", "experiment": "Decrease in clfB expression in biofilm-associated cells of epidemic methicillin-resistant Staphylococcus aureus isolate 16-2 at 4 times MIC incubated for 1 hr by RT-PCR relative to untreated control"}, "Staphylococcus aureus [29]": {"system": "Staphylococcus aureus", "experiment": "Increase in cna expression in biofilm-associated cells of epidemic methicillin-resistant Staphylococcus aureus isolate 16-2 at 4 times MIC incubated for 1 hr by RT-PCR relative to untreated control"}, "Staphylococcus aureus [30]": {"system": "Staphylococcus aureus", "experiment": "Increase in icaC expression in biofilm-associated cells of epidemic methicillin-resistant Staphylococcus aureus isolate 16-2 at 4 times MIC incubated for 1 hr by RT-PCR relative to untreated control"}, "Staphylococcus aureus [31]": {"system": "Staphylococcus aureus", "experiment": "Decrease in mnhG expression in biofilm-associated cells of epidemic methicillin-resistant Staphylococcus aureus isolate 16-2 at 4 times MIC incubated for 1 hr by RT-PCR relative to untreated control"}, "Staphylococcus aureus [32]": {"system": "Staphylococcus aureus", "experiment": "Decrease in tst expression in biofilm-associated cells of epidemic methicillin-resistant Staphylococcus aureus isolate 16-2 at 4 times MIC incubated for 1 hr by RT-PCR relative to untreated control"}, "Staphylococcus aureus [33]": {"system": "Staphylococcus aureus", "experiment": "Decrease in capG expression in biofilm-associated cells of epidemic methicillin-resistant Staphylococcus aureus isolate 15 at 4 times MIC incubated for 1 hr by RT-PCR relative to untreated control"}, "Staphylococcus aureus [34]": {"system": "Staphylococcus aureus", "experiment": "Decrease in mnhG expression in biofilm-associated cells of epidemic methicillin-resistant Staphylococcus aureus isolate 15 at 4 times MIC incubated for 1 hr by RT-PCR relative to untreated control"}}}
{"smiles": "CN(C)c1cc(NC(=O)CNC(C)(C)C)c(O)c2c1C[C@H]1C[C@H]3[C@H](N(C)C)C(O)=C(C(N)=O)C(=O)[C@@]3(O)C(O)=C1C2=O", "note": "[TIGECYCLINE]", "values": [{"measurement": "fold change (FC)", "setting": "Staphylococcus aureus [1]", "value": 5.34}, {"measurement": "fold change (FC)", "setting": "Staphylococcus aureus [2]", "value": 2.15}, {"measurement": "fold change (FC)", "setting": "Staphylococcus aureus [3]", "value": 2.35}, {"measurement": "fold change (FC)", "setting": "Staphylococcus aureus [4]", "value": 6.29}, {"measurement": "fold change (FC)", "setting": "Staphylococcus aureus [5]", "value": 7.41}, {"measurement": "fold change (FC)", "setting": "Staphylococcus aureus [6]", "value": 12.06}, {"measurement": "fold change (FC)", "setting": "Staphylococcus aureus [7]", "value": 13.06}, {"measurement": "fold change (FC)", "setting": "Staphylococcus aureus [8]", "value": 13.76}, {"measurement": "fold change (FC)", "setting": "Staphylococcus aureus [9]", "value": 2.23}, {"measurement": "fold change (FC)", "setting": "Staphylococcus aureus [10]", "value": 7.68}, {"measurement": "fold change (FC)", "setting": "Staphylococcus aureus [11]", "value": 1.51}, {"measurement": "fold change (FC)", "setting": "Staphylococcus aureus [12]", "value": 1.75}, {"measurement": "fold change (FC)", "setting": "Staphylococcus aureus [13]", "value": 1.93}, {"measurement": "fold change (FC)", "setting": "Staphylococcus aureus [14]", "value": 2.79}, {"measurement": "fold change (FC)", "setting": "Staphylococcus aureus [15]", "value": 3.31}, {"measurement": "fold change (FC)", "setting": "Staphylococcus aureus [16]", "value": 2.02}, {"measurement": "fold change (FC)", "setting": "Staphylococcus aureus [17]", "value": 2.44}, {"measurement": "fold change (FC)", "setting": "Staphylococcus aureus [18]", "value": 4.38}, {"measurement": "fold change (FC)", "setting": "Staphylococcus aureus [19]", "value": 3.28}, {"measurement": "fold change (FC)", "setting": "Staphylococcus aureus [20]", "value": 3.91}, {"measurement": "fold change (FC)", "setting": "Staphylococcus aureus [21]", "value": 2.02}, {"measurement": "fold change (FC)", "setting": "Staphylococcus aureus [22]", "value": 2.63}, {"measurement": "fold change (FC)", "setting": "Staphylococcus aureus [23]", "value": 2.84}, {"measurement": "fold change (FC)", "setting": "Staphylococcus aureus [24]", "value": 2.46}, {"measurement": "fold change (FC)", "setting": "Staphylococcus aureus [25]", "value": 3.42}, {"measurement": "fold change (FC)", "setting": "Staphylococcus aureus [26]", "value": 1.32}, {"measurement": "fold change (FC)", "setting": "Staphylococcus aureus [27]", "value": 1.96}, {"measurement": "fold change (FC)", "setting": "Staphylococcus aureus [28]", "value": 1.18}, {"measurement": "fold change (FC)", "setting": "Staphylococcus aureus [29]", "value": 1.2}, {"measurement": "fold change (FC)", "setting": "Staphylococcus aureus [30]", "value": 1.6}, {"measurement": "fold change (FC)", "setting": "Staphylococcus aureus [31]", "value": 6.99}, {"measurement": "fold change (FC)", "setting": "Staphylococcus aureus [32]", "value": 5.52}, {"measurement": "fold change (FC)", "setting": "Staphylococcus aureus [33]", "value": 1.58}, {"measurement": "fold change (FC)", "setting": "Staphylococcus aureus [34]", "value": 1.64}]}
